Source: publication PMC3828125 (Biochemistry, 2011)
Read-outs that look alike come from different tables or passages of the source. Marks after values point to notes of the source that are not given here.

Experiments:
CYP3A4 [1] = target: T1, CYP3A4 (Homo sapiens, UniProt P08684, S18F); conditions: read-out: Km of 10,11-epoxide formation; ref [26], [89]; cited from earlier work
CYP3A4 [2] = target: T1, CYP3A4; assay: Absorbance difference titrations of recombinant CYP3A4 with MDZ and CBZ
CYP3A4 [3] = target: T1, CYP3A4
CYP3A4 [4] = target: T1, CYP3A4; remark: listed apart in the source
CYP3A4 [5] = target: CYP3A4 (Homo sapiens, UniProt P08684); conditions: for Km at 2 min: human, fit to eq 1
CYP3A4 [6] = target: T1, CYP3A4; conditions: read-out: experimental KM for 1′-OH-MDZ formation; ref [23], [86]–[88]; cited from earlier work
[7] = target: recombinant human cytochrome P450 3A4 (CYP3A4 NF14 construct) (human) (UniProt P08684); assay: SEC
[8] = 260 μM Carbamazepine alone, 1 μM CYP3A4
[9] = 260 μM Carbamazepine alone, 1 μM CYP3A4, chemical equivalence (eq 7)
[10] = 260 μM Carbamazepine alone, 1 μM CYP3A4, eq 6
[11] = 260 μM Midazolam alone, 1 μM CYP3A4
[12] = 260 μM Midazolam alone, 1 μM CYP3A4, eq 6
[13] = 260 μM Midazolam with 260 μM Carbamazepine bound simultaneously, 1 μM CYP3A4

NC(=O)N1c2ccccc2C=Cc2ccccc21 [CBZ, carbamazepine]
Km (CYP3A4 [1]): 119 to 442 µM
Amax of the CBZ titration curve (CYP3A4 [2]; CBZ alone, fit to eq 3): 0.0049 ± 0.0007 µM⁻¹ cm⁻¹
RFe2+-CO, proton peak aa′ (CYP3A4 [3]; [8]): 1.67 ± 0.11 s⁻¹
RFe2+-CO, proton peak bb′ (CYP3A4 [3]; [8]): 1.54 ± 0.09 s⁻¹
RFe2+-CO, proton peak cc′ (CYP3A4 [3]; [8]): 1.59 ± 0.10 s⁻¹
RFe2+-CO, proton peak dd′ (CYP3A4 [3]; [8]): 1.47 ± 0.09 s⁻¹
RFe2+-CO, proton peak ee′ (CYP3A4 [3]; [8]): 1.52 ± 0.09 s⁻¹
RFe3+, proton peak aa′ (CYP3A4 [3]; [8]): 2.44 ± 0.24 s⁻¹
RFe3+, proton peak bb′ (CYP3A4 [3]; [8]): 2.56 ± 0.33 s⁻¹
RFe3+, proton peak cc′ (CYP3A4 [3]; [8]): 2.38 ± 0.23 s⁻¹
RFe3+, proton peak dd′ (CYP3A4 [3]; [8]): 2.50 ± 0.25 s⁻¹
RFe3+, proton peak ee′ (CYP3A4 [3]; [8]): 2.22 ± 0.20 s⁻¹
RP, proton peak aa′ (CYP3A4 [3]; [8]): 0.77 ± 0.26 s⁻¹
RP, proton peak bb′ (CYP3A4 [3]; [8]): 1.03 ± 0.34 s⁻¹
RP, proton peak cc′ (CYP3A4 [3]; [8]): 0.79 ± 0.25 s⁻¹
RP, proton peak dd′ (CYP3A4 [3]; [8]): 1.03 ± 0.26 s⁻¹
RP, proton peak ee′ (CYP3A4 [3]; [8]): 0.71 ± 0.22 s⁻¹
rmin, proton peak aa′ (CYP3A4 [3]; [9]): 7.02±0.40 ^b Å
rmin, proton peak bb′ (CYP3A4 [3]; [9]): 6.69±0.38 ^b Å
rmin, proton peak cc′ (CYP3A4 [3]; [9]): 6.98±0.37 ^b Å
rmin, proton peak dd′ (CYP3A4 [3]; [9]): 6.69±0.29 ^b Å
rmin, proton peak ee′ (CYP3A4 [3]; [9]): 7.12±0.37 ^b Å
rapp, proton peak bb′ (CYP3A4 [3]; [10]): 7.51±0.42 Å
rapp, proton peak cc′ (CYP3A4 [3]; [10]): 7.84±0.41 Å
rapp, proton peak dd′ (CYP3A4 [3]; [10]): 7.51±0.33 Å
rapp, proton peak ee′ (CYP3A4 [3]; [10]): 7.99±0.41 Å
calculated proton-heme distances on average (CYP3A4 [3]; CBZ alone): 7–8 Å
variation in the proton RPs (CYP3A4 [3]; CBZ alone): 30%
RP of CBZ protons (CYP3A4 [3]; in the presence of MDZ): < 0.04
%HS of CYP3A4 heme (CYP3A4 [4]; 260 μM CBZ, 1 μM CYP3A4 (33% HS without ligands)): 34%
effect of CBZ on 1′-OH-MDZ and 4-OH-MDZ formation (CYP3A4 [5]; low [MDZ], 240 μM CBZ): competitively inhibit
effect of CBZ on 1′-OH-MDZ formation (CYP3A4 [5]; saturating CBZ (240 μM), near saturating MDZ): only partially inhibited

Cc1ncc2n1-c1ccc(Cl)cc1C(c1ccccc1F)=NC2 [MDZ, midazolam]
Km (CYP3A4 [6]): 5 to 11 µM
Δε at 100 μM MDZ in the titration curve (CYP3A4 [2]; 120 μM CBZ): ~ 0.015 μM^−1 cm^−1
Amax of the MDZ titration curve (CYP3A4 [2]; absence of CBZ): 0.0342 ± 0.0083 µM⁻¹ cm⁻¹
Kd (CYP3A4 [2]; human, pH 7.4): 70.6 ± 29 µM
Δε at 100 μM MDZ in the titration curve (CYP3A4 [2]; no CBZ): ~ 0.025 μM^−1 cm^−1
RFe2+-CO, proton peak 1′ (CYP3A4 [3]; [11]): 1.53 ± 0.04 s⁻¹
RFe2+-CO, proton peak 3 (CYP3A4 [3]; [11]): 1.45 ± 0.18 s⁻¹
RFe2+-CO, proton peak 3F (CYP3A4 [3]; [11]): 1.46 ± 0.20 s⁻¹
RFe2+-CO, proton peak 4F (CYP3A4 [3]; [11]): 1.91 ± 0.07 s⁻¹
RFe2+-CO, proton peak 5F (CYP3A4 [3]; [11]): 1.72 ± 0.10 s⁻¹
RFe2+-CO, proton peak 6F (CYP3A4 [3]; [11]): 1.83 ± 0.11 s⁻¹
RFe2+-CO, proton peak 7 (CYP3A4 [3]; [11]): 1.67 ± 0.09 s⁻¹
RFe2+-CO, proton peak 9 (CYP3A4 [3]; [11]): 1.65 ± 0.12 s⁻¹
RFe2+-CO, proton peak 10 (CYP3A4 [3]; [11]): 1.81 ± 0.11 s⁻¹
RFe3+, proton peak 1′ (CYP3A4 [3]; [11]): 2.18 ± 0.02 s⁻¹
RFe3+, proton peak 3 (CYP3A4 [3]; [11]): 1.88 ± 0.04 s⁻¹
RFe3+, proton peak 3F (CYP3A4 [3]; [11]): 1.60 ± 0.07 s⁻¹
RFe3+, proton peak 4F (CYP3A4 [3]; [11]): 1.85 ± 0.04 s⁻¹
RFe3+, proton peak 5F (CYP3A4 [3]; [11]): 2.17 ± 0.06 s⁻¹
RFe3+, proton peak 6F (CYP3A4 [3]; [11]): 1.88 ± 0.05 s⁻¹
RFe3+, proton peak 7 (CYP3A4 [3]; [11]): 1.81 ± 0.05 s⁻¹
RFe3+, proton peak 9 (CYP3A4 [3]; [11]): 2.97 ± 0.17 s⁻¹
RFe3+, proton peak 10 (CYP3A4 [3]; [11]): 2.85 ± 0.06 s⁻¹
RP, proton peak 1′ (CYP3A4 [3]; [11]): 0.65 ± 0.05 s⁻¹
RP, proton peak 3 (CYP3A4 [3]; [11]): 0.43 ± 0.18 s⁻¹
RP, proton peak 3F (CYP3A4 [3]; [11]): 0.14 ± 0.21 s⁻¹
RP, proton peak 4F (CYP3A4 [3]; [11]): -0.06 ± 0.08 s⁻¹
RP, proton peak 5F (CYP3A4 [3]; [11]): 0.45 ± 0.11 s⁻¹
RP, proton peak 6F (CYP3A4 [3]; [11]): 0.05 ± 0.12 s⁻¹
RP, proton peak 7 (CYP3A4 [3]; [11]): 0.14 ± 0.10 s⁻¹
RP, proton peak 9 (CYP3A4 [3]; [11]): 1.31 ± 0.20 s⁻¹
RP, proton peak 10 (CYP3A4 [3]; [11]): 1.03 ± 0.12 s⁻¹
rmin, proton peak 4F (CYP3A4 [3]; 260 μM Midazolam alone, 1 μM CYP3A4, calculated using the highest RP): 17.02 ^c Å
rmin, proton peak 1′ (CYP3A4 [3]; 260 μM Midazolam alone, 1 μM CYP3A4, chemical equivalence (eq 7)): 7.62±0.18 ^b Å
rapp, proton peak 1′ (CYP3A4 [3]; [12]): 9.15±0.22 Å
rapp, proton peak 3 (CYP3A4 [3]; [12]): 9.79±0.71 Å
rapp, proton peak 3F (CYP3A4 [3]; [12]): 11.84±2.95 Å
rapp, proton peak 5F (CYP3A4 [3]; [12]): 9.75±0.46 Å
rapp, proton peak 6F (CYP3A4 [3]; [12]): 14.13±6.01 Å
rapp, proton peak 7 (CYP3A4 [3]; [12]): 11.83±1.50 Å
rapp, proton peak 9 (CYP3A4 [3]; [12]): 8.14±0.27 Å
rapp, proton peak 10 (CYP3A4 [3]; [12]): 8.47±0.24 Å
RFe2+-CO, proton peak 1′ (CYP3A4 [3]; [13]): 1.57 ± 0.04 s⁻¹
RFe2+-CO, proton peak 3 (CYP3A4 [3]; [13]): 1.44 ± 0.12 s⁻¹
RFe2+-CO, proton peak 3F (CYP3A4 [3]; [13]): 1.54 ± 0.18 s⁻¹
RFe2+-CO, proton peak 4F (CYP3A4 [3]; [13]): ~ 1 sec^−1
RFe2+-CO, proton peak 5F (CYP3A4 [3]; [13]): 1.16 ± 0.19 s⁻¹
RFe2+-CO, proton peak 6F (CYP3A4 [3]; [13]): 1.76 ± 0.13 s⁻¹
RFe2+-CO, proton peak 7 (CYP3A4 [3]; [13]): 1.41 ± 0.06 s⁻¹
RFe2+-CO, proton peak 9 (CYP3A4 [3]; [13]): 1.26 ± 0.07 s⁻¹
RFe2+-CO, proton peak 10 (CYP3A4 [3]; [13]): 1.76 ± 0.09 s⁻¹
RFe3+, proton peak 1′ (CYP3A4 [3]; [13]): 2.13 ± 0.04 s⁻¹
RFe3+, proton peak 3 (CYP3A4 [3]; [13]): 1.82 ± 0.06 s⁻¹
RFe3+, proton peak 3F (CYP3A4 [3]; [13]): 2.04 ± 0.05 s⁻¹
RFe3+, proton peak 4F (CYP3A4 [3]; [13]): 1.08 ± 0.05 s⁻¹
RFe3+, proton peak 5F (CYP3A4 [3]; [13]): 1.05 ± 0.04 s⁻¹
RFe3+, proton peak 6F (CYP3A4 [3]; [13]): 1.69 ± 0.24 s⁻¹
RFe3+, proton peak 7 (CYP3A4 [3]; [13]): 1.70 ± 0.05 s⁻¹
RFe3+, proton peak 9 (CYP3A4 [3]; [13]): 2.37 ± 0.07 s⁻¹
RFe3+, proton peak 10 (CYP3A4 [3]; [13]): 2.69 ± 0.06 s⁻¹
RP, proton peak 1′ (CYP3A4 [3]; [13]): 0.56 ± 0.06 s⁻¹
RP, proton peak 3 (CYP3A4 [3]; [13]): 0.38 ± 0.13 s⁻¹
RP, proton peak 3F (CYP3A4 [3]; [13]): 0.50 ± 0.19 s⁻¹
RP, proton peak 4F (CYP3A4 [3]; [13]): 0.07 ± 0.12 s⁻¹
RP, proton peak 5F (CYP3A4 [3]; [13]): -0.11 ± 0.19 s⁻¹
RP, proton peak 6F (CYP3A4 [3]; [13]): -0.07 ± 0.27 s⁻¹
RP, proton peak 7 (CYP3A4 [3]; [13]): 0.29 ± 0.08 s⁻¹
RP, proton peak 9 (CYP3A4 [3]; [13]): 1.11 ± 0.10 s⁻¹
RP, proton peak 10 (CYP3A4 [3]; [13]): 0.93 ± 0.11 s⁻¹
average RP of the fluorophenyl protons (CYP3A4 [3]; MDZ alone): 0.15 s⁻¹
average distance of chlorophenyl group from heme (CYP3A4 [3]; MDZ alone, calculated from RPs): ~ 10 Å
average distance of fluorophenyl group from heme (CYP3A4 [3]; MDZ alone, calculated from RPs): ~ 13 Å
distance of 1′-CH3 from heme (CYP3A4 [3]; MDZ alone, depending on the orientation): 7.6–9.2 Å
average RP of the fluorophenyl protons (CYP3A4 [3]; MDZ in the presence of CBZ): 0.1 s⁻¹
%HS of CYP3A4 heme (CYP3A4 [4]; 260 μM MDZ and 260 μM CBZ together, 1 μM CYP3A4): 55%
%HS of CYP3A4 heme (CYP3A4 [4]; 260 μM MDZ, 1 μM CYP3A4 (33% HS without ligands)): 70%
[MDZ] at which velocity of 1′-OH-MDZ formation reaches a maximum (CYP3A4 [5]; absence of CBZ): 25 µM
Km at 2 min (CYP3A4 [5]; pH 7.4, Km of 1′-OH-MDZ formation, presence of 240 μM CBZ): 12.5 ± 2.1 µM
Km at 2 min (CYP3A4 [5]; pH 7.4, Km of 4-OH-MDZ formation, absence of CBZ): 47.5 ± 6.8 µM
Km at 2 min (CYP3A4 [5]; pH 7.4, Km of 4-OH-MDZ formation, presence of 240 μM CBZ): 57.7 ± 2.1 µM

recombinant human cytochrome P450 3A4 (CYP3A4 NF14 construct) (from UniProt P08684 1-503) (enzyme)
stoichiometry N [7]: 4
